For data set [1], the target named is T1, Geobacillus thermodenitrificans arabinose isomerase (mGTAI), recombinant, expressed in and purified from Corynebacterium glutamicum mGTAIC001 (Geobacillus thermodenitrificans, UniProt A4IPA1, C449S/N474K).
T1 sequence (A4IPA1 with tags, fused parts or gaps C449S/N474K): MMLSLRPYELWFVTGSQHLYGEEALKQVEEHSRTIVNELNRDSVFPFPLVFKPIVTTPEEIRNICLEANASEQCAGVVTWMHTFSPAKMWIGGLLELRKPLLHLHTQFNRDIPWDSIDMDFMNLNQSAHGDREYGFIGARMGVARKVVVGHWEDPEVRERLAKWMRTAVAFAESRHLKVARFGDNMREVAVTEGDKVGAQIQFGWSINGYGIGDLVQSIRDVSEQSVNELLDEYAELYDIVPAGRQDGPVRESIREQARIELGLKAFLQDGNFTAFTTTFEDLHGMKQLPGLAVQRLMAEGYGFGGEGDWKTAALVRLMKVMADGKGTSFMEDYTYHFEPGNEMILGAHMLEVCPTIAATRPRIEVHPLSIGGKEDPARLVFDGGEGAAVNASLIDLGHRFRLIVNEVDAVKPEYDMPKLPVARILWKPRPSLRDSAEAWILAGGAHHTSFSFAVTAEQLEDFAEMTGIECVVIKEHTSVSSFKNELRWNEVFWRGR
The data set can be described thus: Enzyme kinetics of purified recombinant arabinose isomerase (isomerization of galactose into tagatose). How it is done:
The culture solution was centrifuged at 8000×g for 10 minutes and cells were recovered. The cells were resuspended in 50 mM Tris-HCl (pH 7.0) buffer, and used for the protein purification. The cell suspension progressed to cell lysis using a high pressure cell homogenizer T-series (4.0 kW; Constant systems, UK), followed by heat-treatment at […] for 20 minutes. Centrifugation was performed at 10,000×g for 10 minutes to separate the expressed recombinant thermophilic arabinose isomerase.
The separated recombinant enzyme solution was filtered by ultrafiltration (MW: 10,000; Sartorius, U.S.A.) and was purified by Q Sepharose Fast Flow (anion exchange column) (staring buffer: 20 mM Tris-HCl, pH 7.5, elution buffer: 20 mM Tris-HCl (pH 7.5)+500 mM NaCl). The protein was purified by FPLC system and it was analyzed by SDS-PAGE.
The activity of the enzyme was measured by the cystein-carbazol-sulfuric acid method (Dische, Z., and E. Borenfreund., A New Spectrophotometric Method for the Detection and Determination of Keto Sugars and Trioses, J. Biol. Chem., 192:583-587, 1951). The fraction contained in the enzyme solution was analysed by SDS-PAGE.
The activity of the enzyme was measured in the reaction buffer (50 mM Tris-HCl, pH 7.0, 1 mM MnCl2 was added) at 55° C. to 85° C. (at intervals of 5° C.). The activity of the enzyme was measured by the cystein-carbazol-sulfuric acid method (Dische, Z., and E. Borenfreund., A New Spectrophotometric Method for the Detection and Determination of Keto Sugars and Trioses, J. Biol. Chem., 192:583-587, 1951).
To measure the enzyme kinetics of purified arabinose isomerase of the present invention, kinetic parameters were determined at 60° C., 65° C. and 70° C. (table 5).

Substrate in data set [2]: OC[C@H]1OC(O)[C@H](O)[C@@H](O)[C@H]1O
Kind of data set: purified protein, by the assay type.

Values joined by “and” are separate entries in the source; they are usually repeats but may differ in a detail not shown here. Identical values can stand only once.

Consider `OC[C@H]1OC(O)[C@H](O)[C@@H](O)[C@H]1O` (stereo partly drawn) [galactose], for which the kcat/Km – broadly, the second-order rate constant that governs catalysis at low substrate concentration – is 35 M⁻¹ s⁻¹ and 35 ± 0.67 M⁻¹ s⁻¹ in data set [1] (60° C.); 38.3 ± 0.5 M⁻¹ s⁻¹ in data set [1] (65° C.); 53.3 M⁻¹ s⁻¹ and 53.3 ± 0.67 M⁻¹ s⁻¹ in data set [1] (70° C.). The νmax in data set [1] (60° C.) was 2.5 U/mg and 2.5 ± 0.07 U/mg; in data set [1] (65° C.) it was 6.5 U/mg and 6.5 ± 0.57 U/mg; in data set [1] (70° C.) it was 9.1 U/mg and 9.1 ± 1.42 U/mg. The “Km increase (times) relative to 60° C.” value in data set [1] (65° C. and 70° C. vs 60° C.) stood at 2.4 times.

B1: Geobacillus thermodenitrificans arabinose isomerase (mGTAI), recombinant, expressed in and purified from Corynebacterium glutamicum mGTAIC001 (Geobacillus … (protein)
chain: MMLSLRPYELWFVTGSQHLYGEEALKQVEEHSRTIVNELNRDSVFPFPLVFKPIVTTPEEIRNICLEANASEQCAGVVTWMHTFSPAKMWIGGLLELRKPLLHLHTQFNRDIPWDSIDMDFMNLNQSAHGDREYGFIGARMGVARKVVVGHWEDPEVRERLAKWMRTAVAFAESRHLKVARFGDNMREVAVTEGDKVGAQIQFGWSINGYGIGDLVQSIRDVSEQSVNELLDEYAELYDIVPAGRQDGPVRESIREQARIELGLKAFLQDGNFTAFTTTFEDLHGMKQLPGLAVQRLMAEGYGFGGEGDWKTAALVRLMKVMADGKGTSFMEDYTYHFEPGNEMILGAHMLEVCPTIAATRPRIEVHPLSIGGKEDPARLVFDGGEGAAVNASLIDLGHRFRLIVNEVDAVKPEYDMPKLPVARILWKPRPSLRDSAEAWILAGGAHHTSFSFAVTAEQLEDFAEMTGIECVVIKEHTSVSSFKNELRWNEVFWRGR
For B1, the Km (commonly the substrate concentration at which the rate is half of its maximum) in data set [2] (other: 60° C.) amounted to 67.0 ± 2.98 mM. In data set [2] (other: 65° C.), the kcat/Km was determined as 38.3 M⁻¹ s⁻¹.

Source of the values: patent US8137946B2, “Recombinant GRAS strains expressing thermophilic arabinose isomerase as an active form and method of preparing food grade tagatose by using the same” (CJ Cheiljedang Corporation, priority 2006, dated 2012).
